The text below walks through data of patent publication US9556229B2, “Modification of peptides using a bis(thioether)arylbridge approach” (priority 2012, dated 2017).

Starred links: 1 amine or outer side, 2 acyl side, 3 side chain; linkers in the order of their positions; H or OH if unused. Positions of bridges follow the written chain, without caps; N, C: chain ends. Non-standard residues stand in square brackets, D forms with d. Residues, ends and D or L forms follow the SMILES beside them. ξ: configuration not given here. *: point of attachment. DAMPA = CN(Cc1cnc2nc(N)nc(N)c2n1)c1ccc(C(=O)*)cc1; Phe(F5) = N[C@@H](Cc1c(F)c(F)c(F)c(F)c1F)C(=O)O; X1 = O=C(Cc1ccc(CSCCCCN[*:1])cc1)[*:2]; γGlu = O=C(O)[C@H](CCC(=O)[*:2])N[*:1]; 1Nal = N[C@@H](Cc1cccc2ccccc12)C(=O)O; mXylylene = c1cc(C[*:1])cc(C[*:2])c1; oXylylene = c1ccc(C[*:2])c(C[*:1])c1; Cha = N[C@@H](CC1CCCCC1)C(=O)O; Nicotinoyl = O=C(c1cccnc1)*; ξDisc = O=C(O)C1NCc2ccccc21; β3hP = O=C(O)C[C@@H]1CCCN1; Inp = O=C(O)C1CCNCC1; Ahx = NCCCCCC(=O)O

For the first test, the system named is HCT116/SCID. Description: Mouse subcutaneous engraftment model (HCT116/SCID). It counts as in vivo.
Details: not given
From the text: Based on analysis of p53/MDM2 and PMI-N8A/MDM2 crystal structures we placed various combinations of (L)- and (D)Cys residues in specific positions of PMI sequence considering the importance of particular amino acids for peptide bioactivity (see, e.g., Tables 1 and 2. Particular combinations were in turn tAB-ed using selected bis-halogeno-aryl compounds (see, e.g., FIG. 1) that fit into spatial arrangements/dimensions available, based on computer aided molecular modeling. Since ^DPMI-a presumably lack cell permeating properties, in addition we engineered several analogues as a cell permeating compounds containing multiple Arg residues simultaneously employing combination of D- and unusual amino acids to further enhance stability and binding properties of the peptide. Analogues were subsequently tested in vitro using HCT116 colorectal cancer cells and PrestoBlue™ assay (Invitrogen). […] Selected analogues were also tested in vivo using mouse subcutaneous engraftment model (HCT116/SCID).
Turning to `N=C(N)NCCC[C@@H](N)C(=O)N[C@@H](CCCNC(=N)N)C(=O)N[C@@H](Cc1c(F)c(F)c(F)c(F)c1F)C(=O)N[C@@H](CCCNC(=N)N)C(=O)N[C@@H]1CSCc2ccccc2CSC[C@@H](C(=O)N[C@H](CCCNC(=N)N)C(=O)N[C@@H](CC2CCCCC2)C(=O)N[C@@H](CCCNC(=N)N)C(=O)N2Cc3ccccc3C2C(N)=O)NC(=O)[C@H](Cc2cccc3ccccc23)NC(=O)[C@H](Cc2ccc(O)cc2)NC1=O` (stereo partly drawn) [ArB14Co, Arg-Arg-PhF-Arg-Cys-Tyr-Na1-Cys-Arg-Cha-Arg-DISC] (H-[dR]R[Phe(F5)]R[dC]Y[1Nal]C[dR][Cha]R[ξDisc]-NH2; linker 5-8 via oXylylene), the tumor growth delay is on record as around 14.6 days.

The subject of the next test is HCT116 colorectal cancer cells.
Assay: not given
Details: not given
`N=C(N)NCCC[C@@H](N)C(=O)N[C@@H](CCCNC(=N)N)C(=O)N[C@@H](Cc1c(F)c(F)c(F)c(F)c1F)C(=O)N[C@@H](CCCNC(=N)N)C(=O)N[C@@H]1CSCc2ccccc2CSC[C@@H](C(=O)N[C@H](CCCNC(=N)N)C(=O)N[C@@H](CC2CCCCC2)C(=O)N[C@@H](CCCNC(=N)N)C(=O)N2Cc3ccccc3C2C(N)=O)NC(=O)[C@H](Cc2cccc3ccccc23)NC(=O)[C@H](Cc2ccc(O)cc2)NC1=O` (stereo partly drawn) [ArB14Co, Arg-Arg-PhF-Arg-Cys-Tyr-Na1-Cys-Arg-Cha-Arg-DISC] (H-[dR]R[Phe(F5)]R[dC]Y[1Nal]C[dR][Cha]R[ξDisc]-NH2; linker 5-8 via oXylylene): it took 11.2 ± 1.2 µM to reach a half-maximal effect (EC50).
The same measure, in the same setting: the value for `CN(Cc1cnc2nc(N)nc(N)c2n1)c1ccc(C(=O)N[C@@H](CCC(=O)NCCCCCC(=O)N[C@H](CCCNC(=N)N)C(=O)N[C@@H](CCCNC(=N)N)C(=O)N[C@@H](Cc2c(F)c(F)c(F)c(F)c2F)C(=O)N[C@@H](CCCNC(=N)N)C(=O)N[C@@H]2CSCc3ccccc3CSC[C@@H](C(=O)N[C@H](CCCNC(=N)N)C(=O)N[C@@H](CC3CCCCC3)C(=O)N[C@@H](CCCNC(=N)N)C(=O)N3Cc4ccccc4C3C(N)=O)NC(=O)[C@H](Cc3cccc4ccccc34)NC(=O)[C@H](Cc3ccc(O)cc3)NC2=O)C(=O)O)cc1` (stereo partly drawn) [ArB14Co-MTX, MTX-Ahx-Arg-Arg-PhF-Arg-Cys-Tyr-Na1-Cys-Arg-Cha-Arg-DISC] ({DAMPA-γGlu-Ahx}-[dR]R[Phe(F5)]R[dC]Y[1Nal]C[dR][Cha]R[ξDisc]-NH2; linker 5-8 via oXylylene) was 6.9 ± 0.4 µM; that for `C[C@@H](O)[C@H](N)C(=O)N[C@@H](CO)C(=O)N[C@@H](Cc1ccccc1)C(=O)N[C@@H](CCCNC(=N)N)C(=O)N[C@@H](CCCNC(=N)N)C(=O)N[C@@H](Cc1ccc(O)cc1)C(=O)N[C@H]1CSCc2cccc(c2)CSC[C@@H](C(=O)N[C@@H](CO)C(=O)N2CCC[C@H]2C(N)=O)NC(=O)[C@H](CCCNC(=N)N)NC(=O)[C@H](CCCNC(=N)N)NC1=O` [ArB14Dm] was 118 µM; that for `C[C@@H](O)[C@H](N)C(=O)N[C@@H](CO)C(=O)N[C@@H](Cc1ccccc1)C(=O)N[C@@H](CCCNC(=N)N)C(=O)N[C@@H](CCCNC(=N)N)C(=O)N[C@@H](Cc1ccc(O)cc1)C(=O)N[C@H]1CS(=O)(=O)Cc2cccc(c2)CS(=O)(=O)C[C@@H](C(=O)N[C@@H](CO)C(=O)N2CCC[C@H]2C(N)=O)NC(=O)[C@H](CCCNC(=N)N)NC(=O)[C@H](CCCNC(=N)N)NC1=O` [ArB14Dmx] was 142 µM.
The compound `CC(C)C[C@H](NC(=O)[C@@H](C)NC(=O)[C@@H]1CSCc2ccccc2CSC[C@@H](NC(=O)[C@H](C)NC(=O)[C@H](Cc2ccccc2)NC(=O)[C@H](CO)NC(=O)[C@@H](N)[C@@H](C)O)C(=O)N[C@@H](Cc2ccc(O)cc2)C(=O)N[C@@H](Cc2c[nH]c3ccccc23)C(=O)N1)C(=O)N[C@@H](CO)C(=O)N1CCC[C@H]1C(N)=O` [ArB14o] displayed a concentration for a half-maximal effect (EC50) of 249 µM.
With `CC(C)C[C@H](NC(=O)[C@H]1CSCc2ccc(cc2)CSC[C@@H](NC(=O)[C@H](C)NC(=O)[C@H](Cc2ccccc2)NC(=O)[C@H](CO)NC(=O)[C@@H](N)[C@@H](C)O)C(=O)N[C@@H](Cc2ccc(O)cc2)C(=O)N[C@@H](Cc2c[nH]c3ccccc23)C(=O)NCC(=O)N1)C(=O)N[C@@H](CO)C(=O)N1CCC[C@H]1C(N)=O` [ArB15Cp], the EC50 is above 250 µM.
`CC(C)C[C@H](NC(=O)[C@H](CCCNC(=N)N)NC(=O)[C@H](CS)NC(=O)[C@H](Cc1c[nH]c2ccccc12)NC(=O)[C@H](Cc1ccc(O)cc1)NC(=O)[C@H](CCCNC(=N)N)NC(=O)[C@H](CS)NC(=O)[C@H](Cc1ccccc1)NC(=O)[C@H](CCCNC(=N)N)NC(=O)c1cccnc1)C(=O)N[C@@H](CCCNC(=N)N)C(=O)N1CCC[C@H]1C(N)=O` [ArB15F/GNicr] (Nicotinoyl-RFCRYWCRLRP-NH2) came in with an EC50 of 64.5 µM.
On the same count and under the same terms, the value for `CC(C)C[C@H](NC(=O)[C@H](CCCNC(=N)N)NC(=O)[C@H](CS)NC(=O)[C@H](Cc1c[nH]c2ccccc12)NC(=O)[C@H](Cc1ccc(O)cc1)NC(=O)[C@H](CCCNC(=N)N)NC(=O)[C@H](CS)NC(=O)[C@H](Cc1ccccc1)NC(=O)[C@@H](N)CCCNC(=N)N)C(=O)N[C@@H](CCCNC(=N)N)C(=O)N1CCC[C@H]1C(N)=O` [ArB15F/Gr] (H-RFCRYWCRLRP-NH2; N-terminus assumed) was above 250 µM.
Still for that read-out and setting: with `CC(C)C[C@H](NC(=O)[C@H](CCCNC(=N)N)NC(=O)[C@@H]1CSCc2ccccc2CSC[C@H](NC(=O)[C@H](Cc2ccccc2)NC(=O)[C@H](CCCNC(=N)N)NC(=O)c2cccnc2)C(=O)N[C@@H](CCCNC(=N)N)C(=O)N[C@@H](Cc2ccc(O)cc2)C(=O)N[C@@H](Cc2c[nH]c3ccccc23)C(=O)N1)C(=O)N[C@@H](CCCNC(=N)N)C(=O)N1CCC[C@H]1C(N)=O` [ArB15FNico] (Nicotinoyl-RFCRYWCRLRP-NH2; linker 3-7 via oXylylene) the figure was 189 µM; with `CC(C)C[C@H](NC(=O)[C@H](CCCNC(=N)N)NC(=O)[C@@H]1CSCc2ccccc2CSC[C@H](NC(=O)[C@H](Cc2ccccc2)NC(=O)[C@@H](N)CCCNC(=N)N)C(=O)N[C@@H](CCCNC(=N)N)C(=O)N[C@@H](Cc2ccc(O)cc2)C(=O)N[C@@H](Cc2c[nH]c3ccccc23)C(=O)N1)C(=O)N[C@@H](CCCNC(=N)N)C(=O)N1CCC[C@H]1C(N)=O` [ArB15Fo] (H-RFCRYWCRLRP-NH2; linker 3-7 via oXylylene; N-terminus assumed), 49.6 µM.
Still for that read-out and setting: with `CC(C)C[C@H](NC(=O)[C@H](CCCNC(=N)N)NC(=O)[C@@H]1CSCc2cccc(c2)CSC[C@H](NC(=O)[C@H](Cc2ccccc2)NC(=O)[C@H](CCCNC(=N)N)NC(=O)c2cccnc2)C(=O)N[C@@H](CCCNC(=N)N)C(=O)N[C@@H](Cc2ccc(O)cc2)C(=O)N[C@@H](Cc2c[nH]c3ccccc23)C(=O)N1)C(=O)N[C@@H](CCCNC(=N)N)C(=O)N1CCC[C@H]1C(N)=O` [ArB15GNicm] (Nicotinoyl-RFCRYWCRLRP-NH2; linker 3-7 via mXylylene) the figure was 126 µM; with `CC(C)C[C@H](NC(=O)[C@H](CCCNC(=N)N)NC(=O)[C@@H]1CSCc2cccc(c2)CSC[C@H](NC(=O)[C@H](Cc2ccccc2)NC(=O)[C@@H](N)CCCNC(=N)N)C(=O)N[C@@H](CCCNC(=N)N)C(=O)N[C@@H](Cc2ccc(O)cc2)C(=O)N[C@@H](Cc2c[nH]c3ccccc23)C(=O)N1)C(=O)N[C@@H](CCCNC(=N)N)C(=O)N1CCC[C@H]1C(N)=O` [ArB15Gm] (H-RFCRYWCRLRP-NH2; linker 3-7 via mXylylene; N-terminus assumed), 52.2 µM.
For `C[C@@H]1NC(=O)[C@H](CCCNC(=N)N)NC(=O)C[C@@H]2CCCN2C(=O)Cc2ccc(cc2)CSCCCCNC(=O)C2CCN(CC2)C(=O)[C@@H](CCCCN)NC(=O)[C@H](CCCNC(=N)N)NC(=O)[C@@H](Cc2c[nH]c3ccccc23)NC(=O)[C@H](C)NC(=O)[C@H](CCCNC(=N)N)NC(=O)C[C@@H]2CCCN2C(=O)Cc2ccc(cc2)CSCCCCNC(=O)C2CCN(CC2)C(=O)[C@@H](CCCCN)NC(=O)[C@H](CCCNC(=N)N)NC(=O)[C@@H](Cc2c[nH]c3ccccc23)NC1=O` [ArBMim, [-Bmpa-bhPro-Arg-Ala-Trp-Arg-Lys-Inp-CH2CH2CH2CH2-S-]2] (cyclo([Inp][X1][β3hP]RA[dW]R[dK][Inp][X1][β3hP]RA[dW]R[dK])), the midpoint of the response, the EC50, lay at 23.4 ± 2.1 µM.

The test is the same for the next values; noted with them: read-out: EC50 [μM] HCT-116; HCT116 colorectal cancer cells, PrestoBlue assay; NA = not active.
As for `CC(C)C[C@H](NC(=O)[C@H]1CSCc2cccc(c2)Cc2cccc(c2)CSC[C@H](NC(=O)[C@H](C)NC(=O)[C@H](Cc2ccccc2)NC(=O)[C@H](CO)NC(=O)[C@@H](N)[C@@H](C)O)C(=O)N[C@@H](Cc2ccc(O)cc2)C(=O)N[C@@H](Cc2c[nH]c3ccccc23)C(=O)NCC(=O)N1)C(=O)N[C@@H](CO)C(=O)N1CCC[C@H]1C(N)=O` [ArB15Eb], the concentration giving a half-maximal response (EC50) worked out at 163 µM.

What is called EC50 is the concentration giving half of the maximal effect.
